Measured values taken from patent publication US6905841B2, “Enzymatic substrates for detecting Pseudomonas aeruginas” (Biomerieux S.A., priority 1999, dated 2005).
Read-outs that look alike come from different tables or passages of the source.

What was measured:
[1] = system: β-alanine aminopeptidase; conditions: Providencia stuartii; 1 strain tested; read after 22 to 24 hours
[2] = system: β-alanine aminopeptidase; conditions: Serratia marcescens; 3 strains tested; read after 22 to 24 hours
[3] = system: β-alanine aminopeptidase; type: cell-based; conditions: Ochrobactrum anthropi; 1 strain tested; read after 22 to 24 hours
[4] = system: β-alanine aminopeptidase; conditions: Enterococcus faecium; 2 strains tested; read after 22 to 24 hours
[5] = system: β-alanine aminopeptidase; conditions: Pseudomonas stutzeri; 3 strains tested; read after 22 to 24 hours
[6] = system: β-alanine aminopeptidase; conditions: Vibrio vulnificus; 1 strain tested; read after 22 to 24 hours
[7] = system: β-alanine aminopeptidase; conditions: Citrobacter freundii; 2 strains tested; read after 22 to 24 hours
[8] = system: β-alanine aminopeptidase; conditions: Escherichia coli; 2 strains tested; read after 22 to 24 hours
[9] = system: β-alanine aminopeptidase; conditions: Streptococcus pyogenes; 2 strains tested; read after 22 to 24 hours
[10] = system: β-alanine aminopeptidase; conditions: Sphingomonas paucimobilis; 2 strains tested; read after 22 to 24 hours
[11] = system: β-alanine aminopeptidase; conditions: Stenotrophomonas maltophilia; 2 strains tested; read after 22 to 24 hours
[12] = system: β-alanine aminopeptidase; conditions: Shewanella putrefaciens; 1 strain tested; read after 22 to 24 hours
[13] = system: β-alanine aminopeptidase; conditions: Streptococcus agalactiae; 1 strain tested; read after 22 to 24 hours
[14] = system: β-alanine aminopeptidase; conditions: Achromobacter xylosoxydans; 2 strains tested; read after 22 to 24 hours
[15] = system: β-alanine aminopeptidase; conditions: Enterobacter intermedius; 1 strain tested; read after 22 to 24 hours
[16] = system: β-alanine aminopeptidase; assay: APIZYM-type test strips with β-alanyl-β-naphthylamide; type: cell-based; conditions: Klebsiella pneumoniae, spp. oxytoca; five strains
[17] = system: β-alanine aminopeptidase; assay: as above; type: cell-based; conditions: Burkholderia cepacia; five strains
[18] = system: β-alanine aminopeptidase; assay: as above; type: cell-based; conditions: Providencia stuartii; five strains
[19] = system: β-alanine aminopeptidase; assay: as above; type: cell-based; conditions: Pseudomonas putida; five strains
[20] = system: β-alanine aminopeptidase; assay: as above; type: cell-based; conditions: Chryseobacterium balustinum; 1 strain
[21] = system: β-alanine aminopeptidase; assay: as above; type: cell-based; conditions: Salmonella arizonae; five strains
[22] = system: β-alanine aminopeptidase; assay: as above; type: cell-based; conditions: Brevundimonas diminuta; five strains
[23] = system: β-alanine aminopeptidase; assay: as above; type: cell-based; conditions: Hafnia alvei; five strains
[24] = system: β-alanine aminopeptidase; assay: as above; type: cell-based; conditions: Brevundimonas vesicularis; five strains
[25] = system: β-alanine aminopeptidase; assay: as above; type: cell-based; conditions: Moraxella lacunata; 4 strains
[26] = system: β-alanine aminopeptidase; assay: as above; type: cell-based; conditions: Empedobacter brevis; 3 strains
[27] = system: β-alanine aminopeptidase; assay: as above; type: cell-based; conditions: Plesiomonas shigelloïdes; five strains
[28] = system: β-alanine aminopeptidase; assay: as above; type: cell-based; conditions: Serratia plymuthica; five strains
[29] = system: β-alanine aminopeptidase; assay: as above; type: cell-based; conditions: Proteus mirabilis; five strains
[30] = system: β-alanine aminopeptidase; assay: as above; type: cell-based; conditions: Salmonella spp.; five strains
[31] = system: β-alanine aminopeptidase; assay: as above; type: cell-based; conditions: Comamonas acidovorans; five strains
[32] = system: β-alanine aminopeptidase; assay: as above; type: cell-based; conditions: proches de Pasteurella; 4 strains
[33] = system: β-alanine aminopeptidase; assay: as above; type: cell-based; conditions: Salmonella gallinarum; 3 strains
[34] = system: β-alanine aminopeptidase; assay: as above; type: cell-based; conditions: Salmonella paratyphi A; five strains
[35] = system: β-alanine aminopeptidase; assay: as above; type: cell-based; conditions: Providencia alcalifaciens; five strains

## NCCC(=O)c1c(N)cc(Cl)c(O)c1Cl
[1]
  Number of negative results: 1
  Number positive results: 0
[2]
  Number of negative results: 0
  Number positive results: 3
[3]
  Number of negative results: 0
  Number positive results: 1
[4]
  Number of negative results: 2
  Number positive results: 0
[5]
  Number of negative results: 3
  Number positive results: 0
[6]
  Number of negative results: 1
  Number positive results: 0
[7]
  Number of negative results: 2
  Number positive results: 0
[8]
  Number of negative results: 2
  Number positive results: 0
[9]
  Number of negative results: 2
  Number positive results: 0
[10]
  Number of negative results: 2
  Number positive results: 0
[11]
  Number of negative results: 2
  Number positive results: 0
[12]
  Number of negative results: 1
  Number positive results: 0
[13]
  Number of negative results: 1
  Number positive results: 0
[14]
  Number of negative results: 2
  Number positive results: 0
[15]
  Number of negative results: 1
  Number positive results: 0

## β-alanyl-β-naphthylamide
[16]
  β-alanine aminopeptidase activity, result: negative
[17]
  β-alanine aminopeptidase activity, result: positive
[18]
  β-alanine aminopeptidase activity, result: negative
[19]
  β-alanine aminopeptidase activity, result: negative
[20]
  β-alanine aminopeptidase activity, result: negative
[21]
  β-alanine aminopeptidase activity, result: negative
[22]
  β-alanine aminopeptidase activity, result: negative
[23]
  β-alanine aminopeptidase activity, result: negative
[24]
  β-alanine aminopeptidase activity, result: negative
[25]
  β-alanine aminopeptidase activity, result: negative
[26]
  β-alanine aminopeptidase activity, result: negative
[27]
  β-alanine aminopeptidase activity, result: negative
[28]
  β-alanine aminopeptidase activity, result: negative
[29]
  β-alanine aminopeptidase activity, result: negative
[30]
  β-alanine aminopeptidase activity, result: negative
[31]
  β-alanine aminopeptidase activity, result: negative
[32]
  β-alanine aminopeptidase activity, result: negative
[33]
  β-alanine aminopeptidase activity, result: negative
[34]
  β-alanine aminopeptidase activity, result: negative
[35]
  β-alanine aminopeptidase activity, result: negative
